From patent publication US4749782A, “Vasopressin compounds” (Smithkline Beckman Corporation, priority 1986, dated 1988) come the findings set out here.

In the experiment the target is T1, V2 -vasopressin receptors (Rattus norvegicus, UniProt Q00788).
T1 construct: from tissue; host or cells: whole animal (hydropenic rat)
Nature of the experiment: in vivo diuretic activity in the hydropenic rat. Conditions: measure of V2 antagonism. As for the experimental part:
Antagonistic activity at the V2 -vasopressin receptors is determined in a protocol which determines in vivo diuretic activity in the hydropenic rat (ED300 μg/kg). This procedure is described in the literature: F. Stassen et al., 1st International Conference on Diuretics, Miami, FL., March (1984).

T1 sequence (Q00788 whole entry): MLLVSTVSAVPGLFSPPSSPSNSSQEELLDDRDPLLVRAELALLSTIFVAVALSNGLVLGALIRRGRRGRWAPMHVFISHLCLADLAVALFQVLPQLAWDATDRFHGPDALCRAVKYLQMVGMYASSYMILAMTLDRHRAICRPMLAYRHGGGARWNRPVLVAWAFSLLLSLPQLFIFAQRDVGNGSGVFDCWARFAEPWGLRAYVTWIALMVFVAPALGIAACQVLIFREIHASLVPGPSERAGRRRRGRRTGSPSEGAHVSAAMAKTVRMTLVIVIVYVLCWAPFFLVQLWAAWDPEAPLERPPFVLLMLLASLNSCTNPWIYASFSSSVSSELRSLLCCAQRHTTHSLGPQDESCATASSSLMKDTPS

As to “[1-(β,β-diethyl-β-mercaptopropionic acid)-2-(O-ethyl-L-tyrosine)-4-valine-8-arginine] vasopressin [Compound C]”, the ED300 came out at 120.5 µg/kg.
The substance “[1-(β,β-diethyl β-mercaptopropionic acid)-2-(O-ethyl-D-tyrosine)-4-valine-8-arginine-9-desglycine]-vasopressin [Compound B]” yielded an ED300 of 11.9 µg/kg.
The value for “[1-(β,β-dimethyl-β-mercaptopropionic acid)-2-(O-ethyl-D-tyrosine)-4-valine-8-arginine]vasopressin [Compound D, reference compound]” was 4950 µg/kg.
